Results taken from US11130741B2 (Bioimics AB, priority 2016, dated 2021).
Converted amounts (≈) assume the structure as drawn. Counter-ions that a name gives are not always drawn. Like-named read-outs stand apart in the source and are kept apart here.

Legend:
[1] = test system: Staphylococcus aureus subsp. aureus (ATCC29213); assay: MIC, broth microdilution (CLSI), Staphylococcus aureus subsp. aureus ATCC29213; type: cell-based; conditions: ATCC29213, Table 15, read-out: S. aureus ("wound") (MIC)
[2] = test system: Escherichia coli (ATCC25922); assay: MIC, broth microdilution (CLSI), Escherichia coli ATCC25922
[3] = ATCC25922, read-out: E. coli MIC
[4] = ATCC25922, read-out: E. coli MIC, Table 15, NI = No inhibition

SMILES	MIC [1]	MIC [2, 3]	MIC [2, 4]
FC(F)(F)c1cc(NC2CCNCC2)c2c(c1)Sc1cc(N3CCNCC3)ccc1N2 [compound 270, 7-(piperazin-1-yl)-N-(piperidin-4-yl)-3-(trifluoromethyl)-10H-phenothiazin-1-amine hydrochloride]	32 µg/mL	128 µg/mL	–
CC1CCCN(c2ccc3c(c2)Sc2cc(C(F)(F)F)cc(NC(=O)CCNCCN)c2N3)C1.Cl.Cl (stereo not drawn) [compound 308, 3-((2-aminoethyl)amino)-N-(7-(3-methyl-piperidin-1-yl)-3-(trifluoromethyl)-10H-phenothiazin-1-yl)propanamide hydrochloride]	16 µg/mL	–	64 µg/mL
CCOC(=O)c1ccc2c(c1)Sc1cc(Br)ccc1N2CCCN [compound 276, ethyl 10-(3-aminopropyl)-7-bromo-10H-phenothiazine-3-carboxylate]	4 µg/mL (≈ 9.82 µM)	–	32 µg/mL (≈ 78.6 µM)
CC1CC(C)CN(c2ccc3c(c2)Sc2cc(C(F)(F)F)cc(NCCCNCCN)c2N3)C1.Cl (stereo not drawn) [compound 346, N1-(2-aminoethyl)-N3-(7-(3,5-dimethylpiperidin-1-yl)-3-(trifluoromethyl)-10H-phenothiazin-1-yl) propane-1,3-diamine hydrochloride]	4 µg/mL	–	16 µg/mL
Cl.Cl.NCCN(CCN)CCN1CCC(Nc2cc(C(F)(F)F)cc3c2Nc2ccc(N4CCCC4)cc2S3)CC1 [compound 335, N1-(2-aminoethyl)-N1-(2-(4-((7-(pyrrolidin-1-yl)-3-(trifluoromethyl)-10H-phenothiazin-1-yl)amino)piperidin-1-yl)ethyl)ethane-1,2-diamine hydrochloride]	4 µg/mL	–	64 µg/mL
Cl.NCCN1CCC(Nc2cc(C(F)(F)F)cc3c2Nc2ccc(N4CCC5CCCC54)cc2S3)CC1 (stereo not drawn) [compound 340, N-(1-(2-aminoethyl)piperidin-4-yl)-7-(hexahydro-cyclopenta[b]pyrrol-1(2H)-yl)-3-(trifluoromethyl)-10H-phenothiazin-1-amine hydrochloride]	4 µg/mL	–	16 µg/mL
Cl.NC1CCCC(CNc2cc(C(F)(F)F)cc3c2Nc2ccc(Br)cc2S3)C1 (stereo not drawn) [compound 343, N-((3-aminocyclohexyl)methyl)-7-bromo-3-(trifluoromethyl)-10H-phenothiazin-1-amine hydrochloride]	16 µg/mL	–	64 µg/mL
Cl.NCCCNc1cc(C(F)(F)F)cc2c1Nc1ccc(N3CCCC3)cc1S2 [compound 324, N1-(7-(pyrrolidin-1-yl)-3-(trifluoromethyl)-10H-phenothiazin-1-yl)propane-1,3-diamine hydrochloride]	4 µg/mL	–	32 µg/mL
NCCCN1c2ccc(N3CCNCC3)cc2Sc2cc(C(F)(F)F)ccc21 [compound 265, 3-(3-(piperazin-1-yl)-7-(trifluoromethyl)-10H-phenothiazin-10-yl)propan-1-amine hydrochloride]	16 µg/mL	64 µg/mL	–
Cl.FC(F)(F)c1cc(NC2CCN(CCN3CCNCC3)CC2)c2c(c1)Sc1cc(N3CCCC3)ccc1N2 [compound 330, N-(1-(2-(piperazin-1-yl)ethyl)piperidin-4-yl)-7-(pyrrolidin-1-yl)-3-(trifluoromethyl)-10H-phenothiazin-1-amine hydrochloride]	128 µg/mL	> 128 µg/mL	–
Cl.Cl.NCCN1CCC(Nc2cc(C(=O)NNc3ccccc3)cc3c2Nc2ccccc2S3)CC1 [compound 281, 1-((1-(2-aminoethyl)piperidin-4-yl)amino)-N′-phenyl-10H-phenothiazine-3-carbohydrazide hydrochloride]	32 µg/mL	–	64 µg/mL
Cl.FC(F)(F)c1cc(NC2CCN(CCN3CCNCC3)CC2)c2c(c1)Sc1cc(Br)ccc1N2 [compound 319, 7-bromo-N-(1-(2-(piperazin-1-yl)ethyl)piperidin-4-yl)-3-(trifluoromethyl)-10H-phenothiazin-1-amine hydrochloride]	8 µg/mL	–	8 µg/mL
